In patent US5010090A, “N-(butenyl substituted) azaheterocyclic carboxylic acids” (Novo Nordisk A/S., priority 1985, dated 1991):

Assays:
GABA uptake [1] = experiment: GABA-uptake inhibition in vitro, essentially as described by Fjalland, 3H-GABA as substrate; assay type: biochemical; conditions: two separate experiments, 3-5 concentrations, 3H-GABA substrate (25 mM [sic])
Experimental: GABA-uptake inhibition was measured essentially as described by Fjalland (Acta Pharmacol. et. Toxicol. (1978), 42, 73-76) using 25 mM of 3H-GABA as a substrate. The results obtained appears from Table 4, the obtained values being from two separate experiments using 3-5 different concentrations of test compound.

[2] = tested on: DMCM induced clonic convulsions; experiment: Inhibition of DMCM induced convulsions in vivo; conditions: Mus musculus, ip, 0.5 h; 50% inhibition of DMCM induced clonic convulsions; i.p. 30 min before 15 mg/kg DMCM i.p.; female NMRI mice
Experimental: Inhibition of DMCM induced convulsions was measured on female NMRI mice (20±2 g).
The test compounds were injected intraperitoneally 30 min. before an intraperitoneal injection of 15 mg/kg of DMCM.

GABA uptake [3] = conditions: literature; cited from earlier work

SMILES	IC50 (GABA uptake [1])	ED50 [2]	inhibition of GABA uptake (GABA uptake [3])
Cc1ccsc1C(=CCCN1CCCC(C(=O)O)C1)c1cccs1 (stereo not shown) [Compound 1, N-(4-(3-Methylthien-2-yl)-4-(thien-2-yl)but-3-enyl)nipecotic acid]	92 nM		
Cn1cccc1C(=CCCN1CCCC(C(=O)O)C1)c1cccn1C (stereo not shown) [Compound 2, N-(4,4-Bis(N-methylpyrrol-2-yl)but-3-enyl)nipecotic acid]	52 nM		
Cc1ccsc1C(=CCCN1CCC=C(C(=O)O)C1)c1cccs1 [Compound 3, N-(4-(3-Methylthien-2yl)-4-(thien-2-yl)but-3-enyl)guvacine]	134 nM		
Cc1ccsc1C(=CCCN1CCC(CC(=O)O)C1)c1cccs1 (stereo not shown) [Compound 4]	72 nM		
Cc1ccsc1C(=CCCN1CCCC(C(=O)O)C1)c1sccc1C (stereo not shown) [Compound 5, N-(4,4-Bis(3-methylthien-2-yl)but-3-enyl)nipecotic acid]	87 nM		
Cc1ccsc1C(=CCCN1CCC[C@@H](C(=O)O)C1)c1sccc1C [Compound 6, R-N-(4,4-bis(3-methylthien-2-yl)but-3-enyl)-nipecotic acid]	74 nM	1.2 mg/kg	
Cc1ccsc1C(=CCCN1CCC(CC(=O)O)C1)c1sccc1C (stereo not drawn) [Compound 7, N-(4,4-Bis(3-methylthien-2-yl)but-3-enyl)-β-homoproline]	69 nM		
O=C(O)C1CCCN(CCC=C(c2sccc2Br)c2sccc2Br)C1 (stereo not shown) [Compound 8, N-(4,4-Bis(3-bromothien-2-yl)but-3-enyl)nipecotic acid]	96 nM		
O=C(O)C1CCCN(CCC=C(c2ccccc2)c2cccs2)C1 (stereo not shown) [Compound 9, N-(4-phenyl-4-(2-thienyl)-3-butenyl)nipecotic acid, reference compound]	465 nM		active inhibitors of GABA uptake
O=C(O)C1CCCN(CCC=C(c2ccccc2)c2ccccc2)C1 (stereo not shown) [Compound 10, N-(4,4-diphenyl-3-butenyl)nipecotic acid, reference compound]	353 nM		active inhibitors of GABA uptake
CCOC(=O)[C@@H]1CCCN(CCC=C(c2sccc2C)c2sccc2C)C1 [Example 23, R-N-(4,4-bis(3-methylthien-2-yl)but-3-enyl)-nipecotic acid ethyl ester]		2.5 mg/kg	
O=C(O)C1=CCCN(CCC=C(c2ccccc2)c2ccccc2)C1 [SK&F 100330A, N-(4,4-diphenyl-3-butenyl)guvacine]			active inhibitors of GABA uptake
O=C(O)CC1CCN(CCC=C(c2ccccc2)c2ccccc2)C1 (stereo not drawn) [SK&F 100561, N-(4,4-diphenyl-3-butenyl)-β-homoproline]			active inhibitors of GABA uptake
